Test results taken from patent US11306078B2, “Piperidine CXCR7 receptor modulators” (IDORSIA PHARMACEUTICALS LTD., priority 2016, dated 2022).

Target: human chemokine receptor CXCR7 (Homo sapiens (Human), UniProt P25106)
Test: Tango CXCR7-bla U2OS beta-arrestin recruitment assay (beta-lactamase reporter, FRET), antagonism of CXCL12/SDF1-α;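 also: compounds preincubated 15 min before CXCL12 addition, then 22 h at 37 °C, FRET emission ratio read with CCF4-AM substrate after 2 h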
Type: cell-based
Settings: antagonistic effect on CXCR7; Tango CXCR7-bla U2OS cells, CXCL12/SDF1-α at its EC80

Chain of human chemokine receptor CXCR7 (P25106 whole entry): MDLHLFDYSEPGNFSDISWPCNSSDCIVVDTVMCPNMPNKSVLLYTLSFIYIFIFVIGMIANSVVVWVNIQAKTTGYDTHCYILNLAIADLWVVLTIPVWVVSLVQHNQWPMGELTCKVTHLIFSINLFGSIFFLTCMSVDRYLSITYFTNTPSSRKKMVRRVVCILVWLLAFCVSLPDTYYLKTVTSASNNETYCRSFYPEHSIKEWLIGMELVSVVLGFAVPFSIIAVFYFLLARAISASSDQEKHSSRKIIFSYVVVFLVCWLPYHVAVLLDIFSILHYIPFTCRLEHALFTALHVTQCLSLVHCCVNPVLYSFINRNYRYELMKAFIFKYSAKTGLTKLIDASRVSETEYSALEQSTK

| SMILES | IC50 [nM] |
| --- | --- |
| O=C(N[C@H]1CCN(C2CCC2)C[C@@H]1C(=O)NC1(c2ncccn2)CC1)c1nnc(-c2ccc(F)cc2F)s1 [Example 2.105] | 60 |
| O=C(N[C@H]1CCN(CC2(F)CC2)C[C@@H]1C(=O)NC1(c2ncccn2)CC1)c1nnc(-c2ccc(F)cc2F)s1 [Example 2.106] | 13 |
| CCN1CC[C@H](NC(=O)c2nnc(-c3ccc(F)cc3F)s2)[C@@H](C(=O)NC2(c3ncccn3)CC2)C1 [Example 2.107] | 114 |
| O=C(N[C@@H]1CCN(C2CCCCC2)C[C@H]1C(=O)NC1(c2ccccn2)CC1)c1noc(-c2ccc(F)cc2F)n1 [Example 3.01] | 69 |
| CC1(NC(=O)[C@H]2CN(C3CCCCC3)CC[C@@H]2NC(=O)c2cc(-c3ccc(F)cc3F)on2)CC1 [Example 4.001, (3S,4S)-1-Cyclohexyl-4-{[5-(2,4-difluoro-phenyl)-isoxazole-3-carbonyl]-amino}-piperidine-3-carboxylic Acid (1-methyl-cyclopropyl)-amide] | 133 |
| COCC(C)(C)NC(=O)[C@H]1CN(C2CCCCC2)CC[C@@H]1NC(=O)c1cc(-c2ccc(F)cc2F)on1 [Example 4.002] | 60 |
| COCCC(C)(C)NC(=O)[C@H]1CN(C2CCCCC2)CC[C@@H]1NC(=O)c1cc(-c2ccc(F)cc2F)on1 [Example 4.003] | 333 |
| O=C(N[C@H]1CCN(C2CCCCC2)C[C@@H]1C(=O)NC1(c2ccc(F)cn2)CC1)c1cc(-c2ccc(F)cc2F)on1 [Example 4.004] | 319 |
| CC(NC(=O)[C@H]1CN(C2CCCC2)CC[C@@H]1NC(=O)c1cc(-c2ccc(F)cc2F)on1)c1ccon1 (stereo partly drawn) [Example 4.04] | 86 |
| CC1(NC(=O)[C@H]2CN(C3CCCCC3)CC[C@@H]2NC(=O)c2cc(-c3ccc(F)cc3F)on2)CCC1 [Example 4.006] | 149 |
| CC(NC(=O)[C@H]1CN(C2CCCCC2)CC[C@@H]1NC(=O)c1cc(-c2ccc(F)cc2F)on1)c1ncon1 (stereo partly drawn) [Example 4.007] | 52 |
| CC(NC(=O)[C@H]1CN(C2CCCCC2)CC[C@@H]1NC(=O)c1cc(-c2ccc(F)cc2F)on1)c1ccc(F)cn1 (stereo partly drawn) [Example 4.008] | 150 |
| C[C@@H](NC(=O)[C@@H]1CN(C2CCCCC2)CC[C@H]1NC(=O)c1cc(-c2ccc(F)cc2F)on1)C1CCC1 [Example 4.009] | 573 |
| O=C(N[C@H]1CCN(C2CCCCC2)C[C@@H]1C(=O)NC(CO)c1ccccn1)c1cc(-c2ccc(F)cc2F)on1 (stereo partly drawn) [Example 4.013] | 145 |
| C[C@@H](NC(=O)[C@H]1CN(C2CCCCC2)CC[C@@H]1NC(=O)c1cc(-c2ccc(F)cc2F)on1)C1CCC1 [Example 4.014] | 363 |
| CC(C)(C)NC(=O)[C@@H]1CN(C2CCCCC2)CC[C@H]1NC(=O)c1cc(-c2ccc(F)cc2F)on1 [Example 4.015] | 783 |
| CC1(NC(=O)[C@@H]2CN(C3CCCCC3)CC[C@H]2NC(=O)c2cc(-c3ccc(F)cc3F)on2)CCC1 [Example 4.016] | 463 |

| SMILES | IC50 [nM] |
| --- | --- |
| CC1(NC(=O)[C@@H]2CN(C3CCCCC3)CC[C@H]2NC(=O)c2cc(-c3ccc(F)cc3F)on2)CC1 [Example 4.018] | 343 |
| CC(C)(C#N)NC(=O)[C@@H]1CN(C2CCCCC2)CC[C@H]1NC(=O)c1cc(-c2ccc(F)cc2F)on1 [Example 4.019] | 151 |
| O=C(N[C@H]1CCN(C2CCCC2)C[C@@H]1C(=O)NC1(c2ccncc2)CC1)c1cc(-c2ccc(F)cc2F)on1 [Example 4.026] | 15 |
| O=C(N[C@H]1CCN(C2CCCC2)C[C@@H]1C(=O)NC1(c2ccccn2)CC1)c1cc(-c2ccc(F)cc2F)on1 [Example 4.028] | 32 |
| Cn1cc(C(C)(C)NC(=O)[C@H]2CN(C3CCCC3)CC[C@@H]2NC(=O)c2cc(-c3ccc(F)cc3F)on2)cn1 [Example 4.034] | 255 |
| Cc1nc(C(C)(C)NC(=O)[C@H]2CN(C3CCCC3)CC[C@@H]2NC(=O)c2cc(-c3ccc(F)cc3F)on2)no1 [Example 4.035] | 56 |
| O=C(N[C@H]1CCN(C2CCCC2)C[C@@H]1C(=O)NC1(C2CC2)CC1)c1cc(-c2ccc(F)cc2F)on1 [Example 4.036] | 127 |
| CC(NC(=O)[C@H]1CN(C2CCCC2)CC[C@@H]1NC(=O)c1cc(-c2ccc(F)cc2F)on1)C1CCCO1 (stereo partly drawn) [Example 4.037] | 280 |
| CC(NC(=O)[C@H]1CN(C2CCCC2)CC[C@@H]1NC(=O)c1cc(-c2ccc(F)cc2F)on1)c1nc[nH]n1 (stereo partly drawn) [Example 4.038] | 522 |
| C#CC(C)NC(=O)[C@H]1CN(C2CCCC2)CC[C@@H]1NC(=O)c1cc(-c2ccc(F)cc2F)on1 (stereo partly drawn) [Example 4.039] | 393 |
| CC(NC(=O)[C@H]1CN(C2CCCC2)CC[C@@H]1NC(=O)c1cc(-c2ccc(F)cc2F)on1)c1ccn[nH]1 (stereo partly drawn) [Example 4.041] | 96 |
| C[C@@H](NC(=O)[C@H]1CN(C2CCCC2)CC[C@@H]1NC(=O)c1cc(-c2ccc(F)cc2F)on1)c1cccnc1 [Example 4.042] | 74 |
| Cc1nc(C(C)(C)NC(=O)[C@H]2CN(CC3CC3)CC[C@@H]2NC(=O)c2cc(-c3ccc(F)cc3F)on2)no1 [Example 4.044] | 75 |
| CC(NC(=O)[C@H]1CN(CC2CC2)CC[C@@H]1NC(=O)c1cc(-c2ccc(F)cc2F)on1)c1nc[nH]n1 (stereo partly drawn) [Example 4.047] | 318 |
| N#CCN1CC[C@H](NC(=O)c2cc(-c3ccc(F)cc3F)on2)[C@@H](C(=O)NC2(c3ncccn3)CC2)C1 [Example 4.051] | 356 |
| CCOC(=O)C1(NC(=O)[C@H]2CN(CC3CC3)CC[C@@H]2NC(=O)c2cc(-c3ccc(F)cc3F)on2)CC1 [Example 4.056] | 64 |

Now from value to compound:

| IC50 [nM] | SMILES |
| --- | --- |
| 69 | CC(NC(=O)[C@H]1CN(CC2CC2)CC[C@@H]1NC(=O)c1cc(-c2ccc(F)cc2F)on1)c1ccn[nH]1 (stereo partly drawn) [Example 4.023] |
| 56 | C[C@@H](NC(=O)[C@H]1CN(CC2CC2)CC[C@@H]1NC(=O)c1cc(-c2ccc(F)cc2F)on1)c1cccnc1 [Example 4.024] |
| 8 | O=C(N[C@H]1CCN(CC2CC2)C[C@@H]1C(=O)NC1(c2ccncc2)CC1)c1cc(-c2ccc(F)cc2F)on1 [Example 4.027] |
| 4 | O=C(N[C@H]1CCN(CC2CC2)C[C@@H]1C(=O)NC1(c2ccccn2)CC1)c1cc(-c2ccc(F)cc2F)on1 [Example 4.031] |
| 0.3 | CC(C)(NC(=O)[C@H]1CN(CC2CC2)CC[C@@H]1NC(=O)c1cc(-c2ccc(F)cc2F)on1)c1ccccn1 [Example 4.033] |
| 158 | Cn1cc(C(C)(C)NC(=O)[C@H]2CN(CC3CC3)CC[C@@H]2NC(=O)c2cc(-c3ccc(F)cc3F)on2)cn1 [Example 4.043] |
| 164 | O=C(N[C@H]1CCN(CC2CC2)C[C@@H]1C(=O)NC1(C2CC2)CC1)c1cc(-c2ccc(F)cc2F)on1 [Example 4.045] |
| 290 | CC(NC(=O)[C@H]1CN(CC2CC2)CC[C@@H]1NC(=O)c1cc(-c2ccc(F)cc2F)on1)C1CCCO1 (stereo partly drawn) [Example 4.046] |
| 247 | C#CC(C)NC(=O)[C@H]1CN(CC2CC2)CC[C@@H]1NC(=O)c1cc(-c2ccc(F)cc2F)on1 (stereo partly drawn) [Example 4.048] |
| 148 | CC(NC(=O)[C@H]1CN(CC2CC2)CC[C@@H]1NC(=O)c1cc(-c2ccc(F)cc2F)on1)c1ccon1 (stereo partly drawn) [Example 4.049] |
| 1 | O=C(N[C@H]1CCN(CC2CC2)C[C@@H]1C(=O)NC1(c2ccccc2)CC1)c1cc(-c2ccc(F)cc2F)on1 [Example 4.053] |
| 1 | O=C(N[C@H]1CCN(CC2CC2)C[C@@H]1C(=O)NC1(c2ncccc2F)CC1)c1cc(-c2ccc(F)cc2F)on1 [Example 4.054] |
| 16 | O=C(N[C@H]1CCN(CC2CC2)C[C@@H]1C(=O)NC1(c2ccncn2)CC1)c1cc(-c2ccc(F)cc2F)on1 [Example 4.055] |
| 13 | O=C(N[C@H]1CCN(CC2CC2)C[C@@H]1C(=O)NC1(c2ccccc2)CCC1)c1cc(-c2ccc(F)cc2F)on1 [Example 4.057] |
| 90 | O=C(N[C@H]1CCN(CC2CC2)C[C@@H]1C(=O)N(CCF)Cc1ccccc1)c1cc(-c2ccc(F)cc2F)on1 [Example 4.058] |
| 61 | COc1cccc(C2(NC(=O)[C@H]3CN(CC4CC4)CC[C@@H]3NC(=O)c3cc(-c4ccc(F)cc4F)on3)CC2)c1 [Example 4.059] |
| 1 | O=C(N[C@H]1CCN(CC2CC2)C[C@@H]1C(=O)NC1(c2ccccc2F)CC1)c1cc(-c2ccc(F)cc2F)on1 [Example 4.061] |
| 141 | O=C(N[C@H]1CCN(CC2CC2)C[C@@H]1C(=O)NC1(c2ccc(F)cc2)CC1)c1cc(-c2ccc(F)cc2F)on1 [Example 4.062] |
| 142 | O=C(N[C@H]1CCN(CC2CC2)C[C@@H]1C(=O)NC1(c2cccc(F)c2)CC1)c1cc(-c2ccc(F)cc2F)on1 [Example 4.063] |
| 753 | Cc1cccc(CNC(=O)[C@H]2CN(CC3CC3)CC[C@@H]2NC(=O)c2cc(-c3ccc(F)cc3F)on2)n1 [Example 4.064] |
| 14 | O=C(N[C@H]1CCN(CC2CC2)C[C@@H]1C(=O)NCCc1ccccc1Cl)c1cc(-c2ccc(F)cc2F)on1 [Example 4.065] |
| 320 | CCN(CC)C(=O)[C@H]1CN(CC2CC2)CC[C@@H]1NC(=O)c1cc(-c2ccc(F)cc2F)on1 [Example 4.066] |
| 20 | O=C(N[C@H]1CCN(CC2CC2)C[C@@H]1C(=O)N1CC[C@@H]1c1ccccc1)c1cc(-c2ccc(F)cc2F)on1 [Example 4.067a] |
| 2 | O=C(N[C@@H]1CCN(CC2CC2)C[C@H]1C(=O)N1CC[C@@H]1c1ccccc1)c1cc(-c2ccc(F)cc2F)on1 [Example 4.067b] |
| 1 | O=C(N[C@H]1CCN(CC2CC2)C[C@@H]1C(=O)NC1(c2cccc(Cl)c2)CC1)c1cc(-c2ccc(F)cc2F)on1 [Example 4.068] |
| 153 | CON(C)C(=O)[C@@H]1CN(CC2CC2)CC[C@H]1NC(=O)c1cc(-c2ccc(F)cc2F)on1 [Example 4.069] |
| 212 | CCN(CC)C(=O)[C@@H]1CN(CC2CC2)CC[C@H]1NC(=O)c1cc(-c2ccc(F)cc2F)on1 [Example 4.071] |
| 16 | COc1ccccc1C(C)NC(=O)[C@H]1CN(CC2CC2)CC[C@@H]1NC(=O)c1cc(-c2ccc(F)cc2F)on1 (stereo partly drawn) [Example 4.072] |
| 173 | CCOC(=O)[C@H](NC(=O)[C@H]1CN(CC2CC2)CCC1NC(=O)c1cc(-c2ccc(F)cc2F)on1)c1ccccc1 (stereo partly drawn) [Example 4.073] |
| 27 | COc1ccccc1C1(NC(=O)[C@H]2CN(CC3CC3)CC[C@@H]2NC(=O)c2cc(-c3ccc(F)cc3F)on2)CC1 [Example 4.074] |
